Measured values as given in PubChem BioAssay (NCI).
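Dose response: 5 concentrations. Exposure: 48 h. Format: 96-well plates. Endpoint: linear interpolation; highest concentration if not reached. The concentration for full growth arrest is given as TGI.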 Where a SMILES comes first, the peptide text is derived from it. The star is where a group is joined. Bn = c1ccc(C*)cc1

Legend:
Experiment in all cases: growth of human tumour cells (NCI), 48 h
EKVX NSCLC = tested on: EKVX NSCLC
SK-MEL-2 melanoma = tested on: SK-MEL-2 melanoma
RXF 393 renal = tested on: RXF 393 renal
NCI-H460 lung = tested on: NCI-H460 lung
A549 NSCLC = tested on: A549 NSCLC
HOP-92 NSCLC = tested on: HOP-92 NSCLC
NCI-H23 lung = tested on: NCI-H23 lung
MDA-MB-231 breast = tested on: MDA-MB-231 breast
K-562 leukemia = tested on: K-562 leukemia
M19-MEL melanoma = tested on: M19-MEL melanoma
DMS 273 small cell lung = tested on: DMS 273 small cell lung

Structure (SMILES) | TGI (EKVX NSCLC) [µM] | TGI (SK-MEL-2 melanoma) [µM] | TGI (RXF 393 renal) [µM] | TGI (NCI-H460 lung) [µM] | TGI (A549 NSCLC) [µM] | TGI (HOP-92 NSCLC) [µM] | TGI (NCI-H23 lung) [µM] | TGI (MDA-MB-231 breast) [µM] | TGI (K-562 leukemia) [µM] | TGI (M19-MEL melanoma) [µM] | TGI (DMS 273 small cell lung) [µM]
COc1ccc2c(c1)CCN=C2c1ccccc1CCCCl | > 100 | > 100 | 82.1 | 28.5 | > 100 | > 100 | 39.8 | 63.7 | > 100 |  | 
CCc1nc2cc3cccnc3c(Cl)c2[nH]c1=O | > 100 | > 100 | 91.1 | > 100 | > 100 | > 100 | > 100 | > 100 | > 100 |  | 
COc1ccc(N=C2C(=S)N(c3ccc(OC)cc3)/C(=N/S(=O)(=O)c3ccccc3)N2c2ccccc2)cc1 | 31.8 | 25.5 | 16 | > 73.2 | > 73.1 | 20.7 | 29 | 10.6 | > 100 |  | 
O=C(CCCN1CCC2(CC1)C(=NC1CCCCC1)NC(=O)N2c1ccccc1)c1ccc(F)cc1 | > 100 | 31.9 | 89 | 54.5 | > 100 | 37.8 | 48.1 | 26.1 | > 100 |  | 
O=C(CCc1cccc(O)c1)NCCCNC(=O)CCc1cccc(O)c1 | > 100 | > 100 | > 100 | > 100 | > 100 | > 100 | > 100 | > 100 | > 100 |  | 
c1ccc(C2=Nn3c(CCCCCCCCc4nnc5n4N=C(c4ccccc4)CS5)nnc3SC2)cc1 | > 100 | > 88.7 | 67.5 | > 100 | > 100 | > 82.3 | > 100 | 80.6 | > 79.7 |  | 
CC1=C[C@@H](C)C[C@]2(C)CC[C@H](O2)[C@]23CC[C@](C(=O)O)(C[C@H](O2)[C@@H]2O[C@@](C)(CC2=O)[C@@H](O)[C@H]2CC[C@@]4(CCC[C@@H](O4)[C@H](C)C(=O)O[C@H]4C[C@H]([C@]5(O)OCC[C@H](C)[C@@H]5O)O[C@H]4C=C1)O2)O3 | > 10 | > 10 | > 10 | > 10 | > 10 | > 8.25 | > 10 | > 10 | > 10 |  | 
COc1cc(OCc2ccc3nc(OC)c(OC)nc3c2)cc(OC)c1OC | > 10 | > 2.29 | > 10 | > 10 | > 10 | > 10 | > 10 | > 10 | > 10 |  | 
N#CCCN(CCC#N)c1ccc(/C=C2\SC(=S)NC2=O)cc1Br | > 100 | > 100 | > 100 | > 100 | > 100 | > 100 | > 100 | 79.6 | > 100 |  | 
O=C(OCc1ccccc1)C(Cc1ccccc1)N(Cc1ccccc1)Cc1ccccc1 (centres undefined) | > 100 | > 100 | > 100 | > 100 | > 100 | > 100 | > 100 |  | > 100 | > 100 | > 100
CCCCC/C(C=O)=C\c1ccccc1 | > 100 | > 100 | > 100 | > 100 |  | > 100 | > 100 | > 100 | 69.8 |  | 
CC(C)(C)C(=O)C(Cc1ccccc1)C(=O)C(C)(C)C | > 100 | > 100 | > 100 | > 100 | > 100 | > 100 | > 100 | > 100 | > 100 |  | 
COc1cc(C=C2C(=O)NC(=S)NC2=O)cc(OC)c1OC | > 100 | > 100 | > 100 | > 100 | > 100 | > 100 | > 100 | > 100 | > 100 |  | 
COc1cc(CC(C)N)ccc1O (centres undefined) | > 100 | > 100 | > 100 | > 100 | > 100 | > 100 | > 100 |  | > 100 |  | > 100
CCN(CC)CCNc1ccc2ncn3c4cc(OC)c(OC)c(=O)c4c(O)c1c23 | 33.2 | 42.7 | 6.26 | 15.6 | 35.1 | 24.7 | 26.3 | 20.7 | 50.7 |  | 
COC(=O)C(CC(C)C)NC(=O)C(N)Cc1ccc(OCc2ccccc2)cc1 (centres undefined) (H-Tyr(Bn)-Leu-OMe; configuration not given here) | > 10 | > 10 | > 10 | > 10 | > 10 | > 10 | > 10 | > 10 | > 10 |  | 
Cc1cn([C@H]2C[C@](C)(CO)N(C)O2)c(=O)[nH]c1=O | > 100 | > 100 | > 100 | > 100 | > 100 | > 100 | > 100 | > 100 | > 100 |  | 
O=C(O)c1c2c(cc3c1CC1(Cc4ccccc4C1=O)C3)CCC2 (centres undefined) | > 100 | 55.1 | > 100 | > 100 | > 100 | > 91.6 | > 100 | > 100 | 33.6 |  | 
NS(=O)(=O)c1ccc(NC(NC(=O)C(C(F)(F)F)C(F)(F)F)(C(F)(F)F)C(F)(F)F)cc1 | > 100 | > 100 | > 100 | > 100 | > 100 | > 100 | > 100 | > 100 | > 100 |  | 
NC(=O)c1ncn2c1NC(=O)CC2 | > 100 | > 100 | > 100 | > 100 | > 100 | > 100 | > 100 |  | > 100 | > 100 | > 100
CC1=CC(=O)CC2(C)CCC(C(C)CC(=O)CC(C)C)CC12 (centres undefined) | > 100 | > 100 | > 100 | > 100 | 34.8 | > 100 | > 100 | > 100 | > 100 |  | 
O=C1c2cccc(NCCNCCO)c2C(=O)c2cccc(NCCNCCO)c21 | 4.84 | 2.77 | 3.89 | 7.43 | 7.78 | 2.9 | 5.68 |  | 15 |  | 7.19
